Key:
[1] = biological target: T1, HCV NS3/4A protease complex (BMS strain, genotype 1a) (Hepatitis C virus genotype 1a, UniProt P27958, C1454S); experiment: Recombinant HCV NS3/4A protease complex FRET peptide assay, BMS strain; assay type: biochemical; details: IC50 range, NS3/4A BMS Strain
T1 construct: DNA encoding the recombinant HCV NS3/4A protease complex (amino acids 1027 to 1711) for these strains; inferred from the pET21b vector and Ni-NTA purification; made in house; host or cells: Escherichia coli BL21 (DE3), pET21b
T1 sequence (P27958 1658-1714, looked up, stated change not applied): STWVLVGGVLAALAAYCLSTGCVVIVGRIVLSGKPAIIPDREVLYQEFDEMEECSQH
T1 sequence (P27958 1027-1657, looked up, stated change not applied): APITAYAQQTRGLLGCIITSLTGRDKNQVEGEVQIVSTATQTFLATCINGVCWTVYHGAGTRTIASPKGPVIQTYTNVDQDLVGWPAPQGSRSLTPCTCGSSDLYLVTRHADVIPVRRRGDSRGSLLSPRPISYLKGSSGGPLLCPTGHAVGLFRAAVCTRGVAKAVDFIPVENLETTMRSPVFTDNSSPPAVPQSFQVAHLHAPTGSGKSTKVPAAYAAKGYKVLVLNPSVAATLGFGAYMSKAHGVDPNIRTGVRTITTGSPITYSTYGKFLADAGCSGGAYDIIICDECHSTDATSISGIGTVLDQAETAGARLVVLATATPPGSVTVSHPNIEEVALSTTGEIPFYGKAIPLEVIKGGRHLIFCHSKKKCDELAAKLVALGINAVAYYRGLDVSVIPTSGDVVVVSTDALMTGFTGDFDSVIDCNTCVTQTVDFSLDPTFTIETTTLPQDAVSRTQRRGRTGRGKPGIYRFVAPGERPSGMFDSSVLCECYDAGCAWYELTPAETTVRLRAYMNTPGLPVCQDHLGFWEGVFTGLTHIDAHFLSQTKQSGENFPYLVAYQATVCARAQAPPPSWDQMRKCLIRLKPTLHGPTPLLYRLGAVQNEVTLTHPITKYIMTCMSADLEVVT
Source text: The purpose of this in vitro assay was to measure the inhibition of HCV NS3 protease complexes, derived from the BMS, H77C or J416S strains, as described below, by compounds of the present invention.
Serum from an HCV-infected patient was obtained from Dr. T. Wright, San Francisco Hospital. An engineered full-length cDNA (compliment deoxyribonucleic acid) template of the HCV genome (BMS strain) was constructed from DNA fragments obtained by reverse transcription-PCR (RT-PCR) of serum RNA (ribonucleic acid) and using primers selected on the basis of homology between other genotype 1a strains. […] The infectious clones, H77C (1a genotype) and J4L6S (1b genotype) were obtained from R. Purcell (NIH) and the sequences are published in Genbank (AAB67036, see Yanagi,M., Purcell,R. H., Emerson,S. U. and Bukh,J. Proc. Natl. Acad. Sci. U.S.A. 94(16),8738-8743 (1997); AF054247, see Yanagi,M., St Claire,M., Shapiro,M., Emerson,S. U., Purcell,R. H. and Bukh,J, Virology 244 (1), 161-172. (1998)).
The BMS, H77C and J4L6S strains were used for production of recombinant NS3/4A protease complexes. DNA encoding the recombinant HCV NS3/4A protease complex (amino acids 1027 to 1711) for these strains were manipulated as described by P. Gallinari et al. (see Gallinari P, Paolini C, Brennan D, Nardi C, Steinkuhler C, De Francesco R. Biochemistry. 38(17):5620-32, (1999)). Briefly, a three-lysine solubilizing tail was added at the 3′-end of the NS4A coding region. The cysteine in the P1 position of the NS4A-NS4B cleavage site (amino acid 1711) was changed to a glycine to avoid the proteolytic cleavage of the lysine tag. Furthermore, a cysteine to serine mutation was introduced by PCR at amino acid position 1454 to prevent the autolytic cleavage in the NS3 helicase domain. The variant DNA fragment was cloned in the pET21b bacterial expression vector (Novagen) and the NS3/4A complex was expressed in Escherichia. coli strain BL21 (DE3) (Invitrogen) following the protocol described by P. Gallinari et al. (see Gallinari P, Brennan D, Nardi C, Brunetti M, Tomei L, Steinkuhler C, De Francesco R., J. Virol. 72(8):6758-69 (1998)) with modifications. Briefly, NS3/4A expression was induced with 0.5 mM Isopropyl β-D-1-thiogalactopyranoside (IPTG) for 22 hr at 20° C. […] The cells were resuspended in lysis buffer (10 mL/g) consisting of 25 mM N-(2-Hydroxyethyl)Piperazine-N′-(2-Ethane Sulfonic acid) (HEPES), pH 7.5, 20% glycerol, 500 mM Sodium Chloride (NaCl), 0.5% Triton-X100, 1 ug/ml lysozyme, 5 mM Magnesium Chloride (MgCl2), 1 ug/ml DnaseI, 5 mM β-Mercaptoethanol (βME), Protease inhibitor—Ethylenediamine Tetraacetic acid (EDTA) free (Roche), homogenized and incubated for 20 mins at 4° C. The homogenate was sonicated and clarified by ultra-centrifugation at 235000 g for 1 hr at 4° C. Imidazole was added to the supernatant to a final concentration of 15 mM and the pH adjusted to 8.0. The crude protein extract was loaded on a Nickel-Nitrilotriacetic acid (Ni-NTA) column pre-equilibrated with buffer B (25 mM HEPES, pH 8.0, 20% glycerol, 500 mM NaCl, 0.5% Triton-X100, 15 mM imidazole, 5 mM βME). The sample was loaded at a flow rate of 1 mL/min. The column was washed with 15 column volumes of buffer C (same as buffer B except with 0.2% Triton-X100). The protein was eluted with 5 column volumes of buffer D (same as buffer C except with 200 mM Imidazole).
NS3/4A protease complex-containing fractions were pooled and loaded on a desalting column Superdex-S200 pre-equilibrated with buffer D (25 mM HEPES, pH7.5, 20% glycerol, 300 mM NaCl, 0.2% Triton-X100, 10 mM βME).

[2] = tested on: HCV replicon in Huh7 cells; experiment: HCV replicon cell-based assay (FRET); details: Hepatitis C virus, Huh-7; HCV replicon; read-out: EC50 range
Source text: An HCV replicon whole cell system was established as described by Lohmann V, Korner F, Koch J, Herian U, Theilmann L, Bartenschlager R., Science 285(5424):110-3 (1999). This system enabled us to evaluate the effects of our HCV Protease compounds on HCV RNA replication. Briefly, using the HCV strain 1B sequence described in the Lohmann paper (Assession number: AJ238799), an HCV cDNA was generated encoding the 5′ internal ribosome entry site (IRES), the neomycin resistance gene, the EMCV (encephalomyocarditis viurs)-IRES and the HCV nonstructural proteins, NS3-NS5B, and 3′ non-translated region (NTR). In vitro transcripts of the cDNA were transfected into the human hepatoma cell line, Huh7. […] Resulting cell lines were characterized for positive and negative strand RNA production and protein production over time.
Huh7 cells, constitutively expressing the HCV replicon, were grown in Dulbecco's Modified Eagle Media (DMEM) containing 10% Fetal calf serum (FCS) and 1 mg/ml G418 (Gibco-BRL). Cells were seeded the night before (1.5×10^4 cells/well) in 96-well tissue-culture sterile plates. Compound and no compound controls were prepared in DMEM containing 4% FCS, 1:100 Penicillin/Streptomysin, 1:100 L-glutamine and 5% DMSO in the dilution plate (0.5% DMSO final concentration in the assay). Compound/DMSO mixes were added to the cells and incubated for 4 days at 37° C. After 4 days, plates were rinsed thoroughly with Phosphate-Buffered Saline (PBS) (3 times 150 μl). The cells were lysed with 25 μl of a lysis assay reagent containing the FRET peptide (RET S1, as described for the in vitro enzyme assay). The lysis assay reagent was made from 5× cell Luciferase cell culture lysis reagent(Promega #E153A) diluted to 1× with distilled water, NaCl added to 150 mM final, the FRET peptide diluted to 10 μM final from a 2 mM stock in 100% DMSO. The plate was then placed into the Cytofluor 4000 instrument which had been set to 340 nm excitation/490 emission, automatic mode for 21 cycles and the plate read in a kinetic mode. EC50 determinations were carried out as described for the IC50 determinations.

SMILES | IC50 [1] [nM] | EC50 [2] [nM]
C=C[C@@H]1C[C@]1(NC(=O)[C@@H]1C[C@@H](Oc2cc(-c3ccccc3)nc3cc(OC)ccc23)CN1C(=O)[C@@H](NC(=O)OCC(C)(C)C)C(C)(C)C)C(=O)NS(=O)(=O)C1(Cc2ccccc2)CC1 [Compound 105] | < 50 | 50 to 500
C=C[C@@H]1C[C@]1(NC(=O)[C@@H]1C[C@@H](Oc2cc(-c3ccccc3)nc3cc(OC)ccc23)CN1C(=O)[C@@H](NC(=O)OC(C)(C)C)C(C)(C)C)C(=O)NS(=O)(=O)C1(Cc2c(C)noc2C)CC1 [Compound 50, {1-[2-{1-[1-(3,5-Dimethyl-isoxazol-4-ylmethyl)-cyclopropanesulfonylaminocarbonyl]-2-vinyl-cyclopropylcarbamoyl}-4-(7-methoxy-2-phenyl-quinolin-4-yloxy)-pyrrolidine-1-carbonyl]-2,2-dimethyl-propyl}-carbamic acid tert-butyl ester] | 50 to 500 | 500 to 5000
C=C[C@@H]1C[C@]1(NC(=O)[C@@H]1C[C@@H](Oc2cc(-c3ccccc3)nc3cc(OC)ccc23)CN1C(=O)[C@@H](NC(=O)OC(C)(C)C)C(C)(C)C)C(=O)NS(=O)(=O)C1([Si](C)(C)C)CC1 [Compound 27] | < 50 | < 50
C=CC1C[C@]1(NC(=O)[C@@H]1C[C@@H](Oc2cc(-c3ccccc3)nc3cc(OC)ccc23)CN1C(=O)[C@@H](NC(=O)OC(C)(C)C)C(C)(C)C)C(=O)NS(=O)(=O)C1(C(=O)NCCC)CC1 (stereo in doubt) [Compound 9, (1-{4-(7-Methoxy-2-phenylquinolin-4-yloxy)-2-[1-(1-propylcarbamoyl-cyclopropanesulfonylaminocarbonyl)-2-vinylcyclopropylcarbamoyl]pyrrolidine-1-carbonyl}-2,2-dimethyl-propyl)carbamic acid tert-butyl ester] | < 50 | < 50
C=CC1C[C@]1(NC(=O)[C@@H]1C[C@@H](Oc2cc(-c3ccccc3)nc3cc(OC)ccc23)CN1C(=O)[C@@H](NC(=O)OC(C)(C)C)C(C)(C)C)C(=O)NS(=O)(=O)C1(COC)CC1 (stereo partly shown) [Compound 7, {1-[2-[1-(1-Methoxymethylcyclopropanesulfonylaminocarbonyl)-2-vinylcyclopropylcarbamoyl]-4-(7-methoxy-2-phenyl-quinolin-4--yloxy)pyrrolidine-1-carbonyl]-2,2-dimeth-ylpropyl}-carbamic acid tert-butyl ester] | < 50 | < 50
C=C[C@@H]1C[C@]1(NC(=O)[C@@H]1C[C@@H](Oc2ccnc3cc(Cl)ccc23)CN1C(=O)[C@@H](NC(=O)OC1CCCC1)C(C)(C)C)C(=O)NS(=O)(=O)C1(CC2CC2)CC1 [Compound 66, (1-{4-(7-Chloro-quinolin-4-yloxy)-2-[1-(1-cyclopropylmethyl-cyclopropanesulfonylaminocarbonyl)-2-vinyl-cyclopropylcarbamoyl]-pyrrolidine-1-carbonyl}-2,2-dimethyl-propyl)-carbamic acid cyclopentyl ester] | < 50 | 50 to 500
C=C[C@@H]1C[C@]1(NC(=O)[C@@H]1C[C@@H](Oc2ccnc3cc(Cl)ccc23)CN1C(=O)[C@@H](NC(=O)OC1CCCC1)C(C)(C)C)C(=O)NS(=O)(=O)C1(CCC)CC1 [Compound 64, (1-{4-(7-Chloro-quinolin-4-yloxy)-2-[1-(1-propyl-cyclopropanesulfonylaminocarbonyl)-2-vinyl-cyclopropylcarbamoyl]-pyrrolidine-1-carbonyl}-2,2-dimethyl-propyl)-carbamic acid cyclopentyl ester] | < 50 | 50 to 500
C=C[C@@H]1C[C@]1(NC(=O)[C@@H]1C[C@@H](Oc2cc(-c3csc(NC(C)C)n3)nc3cc(OC)ccc23)CN1C(=O)[C@@H](NC(=O)OC(C)(C)C)C(C)(C)C)C(=O)NS(=O)(=O)C1(CC2CC2)CC1 [Compound 80, (1-{2-[1-(1-Cyclopropylmethyl-cyclopropanesulfonylaminocarbonyl)-2-vinyl-cyclopropylcarbamoyl]-4-[2-(2-isopropylamino-thiazol-4-yl)-7-methoxy-quinolin-4-yloxy]-pyrrolidine-1-carbonyl}-2,2-dimethyl-propyl)-carbamic acid tert-butyl ester] | < 50 | 50 to 500
C=C[C@@H]1C[C@]1(NC(=O)C1CC(Oc2cc(-c3ccccc3)nc3cc(OC)ccc23)CN1C(=O)[C@@H](NC(=O)N(C)C(C)(C)C)C(C)(C)C)C(=O)NS(=O)(=O)C1(CC2CC2)CC1 (stereo partly shown) [Compound 120] | < 50 | 50 to 500
C=CCC1(S(=O)(=O)NC(=O)[C@@]2(NC(=O)[C@@H]3C[C@@H](Oc4cc(-c5ccccc5)nc5cc(OC)ccc45)CN3C(=O)[C@@H](NC(=O)OC(C)(C)C)C(C)(C)C)CC2C=C)CC1 (stereo partly shown) [Compound 2, {1-[2-[1-(1-Allylcyclopropanesul-fonylaminocarbonyl)-2-vinylcyclopropylcarbamoyl]-4-(7-methoxy-2-phenylquinolin-4-yloxy)-pyrrolidine-1-carbonyl]-2,2-dimethylpropyl}carbamic acid tert-butyl ester] | < 50 | < 50
C=C[C@@H]1C[C@]1(NC(=O)[C@@H]1C[C@@H](Oc2ccnc3cc(Cl)ccc23)CN1C(=O)[C@@H](NC(=O)OC1CCCC1)C(C)(C)C)C(=O)NS(=O)(=O)C1(CCCC)CC1 [Compound 65, {1-[2-[1-(1-Butyl-cyclopropanesulfonylaminocarbonyl)-2-vinyl-cyclopropylcarbamoyl]-4-(7-chloro-quinolin-4-yloxy)-pyrrolidine-1-carbonyl]-2,2-dimethyl-propyl}-carbamic acid cyclopentyl ester] | < 50 | 50 to 500

Source: patent publication US6878722B2, “Substituted cycloalkyl P1′ hepatitis C virus inhibitors” (Bristol-Myers Squibb Company, priority 2002, dated 2005)
